In patent publication US5383848A, “Iontophoretic administration of drugs” (Gensia, Inc., priority 1991, dated 1995):
Values joined by “and” are separate entries in the source; they are usually repeats but may differ in a detail not shown here. Equal values may be shown once.

Legend:
elevated heart rate [1] = assay: In vivo dog experiments: heart rate offset after iontophoretic ESA drug with pretreatment (Example A); set-up: species or system labrador dogs; conditions: for Offset Slope Component (0-5) min: 0-5 min after heart rate begins to decline; for Offset Slope Component (5-10) min: 5-10 min after decline begins; for Offset Slope Component (10-30) min: 10-30 min after decline begins; for Change in Heart Rate (peak minus baseline) / Peak Heart Rate: Table II; for Total time (startup) thru offset plateau: in words: Table IV; for Onset Slope: baseline at onset time to peak heart rate; for Decline in heart rate after ESA drug without pretreatment: control runs, hydrochloride; for Offset time: drug delivery stopped until within 20 bpm of baseline; for Offset Slope: drug shut-off to 20 bpm above baseline; for Delay: drug shut-off to start of heart rate decline; for Onset time: start of delivery to start of increase in heart rate; for Time Start Decline: time when elevated heart rate began to decline
elevated heart rate [2] = assay: Additional in vivo dog experiments: dermal clearance enhancer pretreatment then arbutamine TDI (Example C); set-up: species or system labrador dogs; conditions: for CHANGE IN HEART RATE / DELAY TIME / TIME TO REACH 10% DECLINE IN HEART RATE / TIME TO REACH 20% DECLINE IN HEART RATE / TIME TO REACH 30% DECLINE IN HEART RATE / TIME TO REACH 40% DECLINE IN HEART RATE / TIME TO REACH 50% DECLINE IN HEART RATE / HALF-LIFE: single dog run, hydrochloride; for HALF-LIFE: heart rate decline
Method: Additional experiments were performed to study the effect of certain compositions on the offset time and dermal clearance in dogs.
In these experiments, the formulation to be tested was applied either topically or by transdermal iontophoresis (TDI) as described below.
Six labrador dogs (20 to 30 kg) were trained to lie quietly on a table. Before each experiment, three ECG electrodes (one lead) were applied on shaved areas of the back (near the front legs) to obtain the heart rate. The outer hind leg area (either right or left) was shaved prior to each experiment, with care taken not to cut or visibly damage the skin. The area was cleaned with soap and water and the skin was then […] using an alcohol swab followed by skin preparation with 3M One-Step-Prep™ tape.
Each vasodilator that was delivered by TDI used a 1.8 cm^2 electrode (Graphic Controls, Buffalo, N.Y.) containing the vasodilator in a gel at the concentrations listed in experimental methods section. In all experiments, an indifferent electrode containing a phosphate-buffered-saline gel was applied to the skin in conjunction with the electrode containing the vasodilator. Each vasodilator tested was applied for 10 minutes using a current of 0.6 mA/cm^2. During this time the heart rate was continuously recorded (at 5 second intervals) with the ESA Research System. The delivery electrodes were then removed, and any excess gel adhering to the skin was gently removed using a tissue.
Each topically applied vasodilator was applied to the skin in a volume of approximately 0.25 ml. The agent was allowed to absorb into the skin, during which time the heart rate was continuously recorded for 10 minutes using the ESA Research System.
To test if heat alone would produce sufficient vasodilation, a 60° C. hot pack was applied to the skin 10 minutes prior to drug delivery, during which time the heat rate was continuously recorded by the ESA System. Once drug delivery electrodes were applied, the heat pack was reheated and placed on top of them for the duration of the study.
The purpose of this treatment was to produce an elevated heart rate response of at least 40 beats-per-minute above baseline lasting for at least 30 minutes.
^1/ The dose (ITCA) was calculated by multiplying the applied current density (mA/cm^2) by the duration of delivery (minutes) and the drug concentration (%) and the area of the electrode (cm^2). […] The units of ITCA are mA.minutes.
The important variables for this analysis are:
1) delay between time when drug administration was stopped and start of decline in heart rate;
2) the time (minutes) to reach successive percent levels (i.e. 10, 20, 30, 40, and 50% decline) from the point of maximum change in heart rate^2.
3) the half-life (minutes) of the heart rate decline obtained from an exponential fit of the offset slope.
A combination of over-the-counter (OTC) and proprietary formulations were selected for comparison. […] Two dogs received each treatment at least one time.
The six dogs are identified in the table as BA, BB, BO, MI, PO and SA, followed by the experimental identification number. These dogs received control (no pretreatment) and five DCE pretreatment regimens.

[3] = Preclinical and clinical studies using intravenous (IV) infusion of an ESA drug; conditions: in vivo, read-out: Pharmacokinetic and pharmacodynamic half-life
Method: Referring to FIG. 3, dog "PO", 0.08 microgram of GP 2-121-3 per kilogram of dog body weight per minute was administered over a 7 minute period. Referring to FIG. 4, dog "BO", 0.10 microgram of GP 2-121-3per kilogram per minute was administered over a 10 minute period.

[4] = Protein binding of arbutamine to albumin in IPPSF perfusate; type: in vitro ADME; conditions: bovine, IPPSF perfusate media

Cl.Oc1ccc(CCCCNCC(O)c2ccc(O)c(O)c2)cc1 (stereo not drawn) [Arbutamine, 1-(3,4-dihydroxy-phenyl)-2-(4-(4-hydroxyphenyl)butylamino)ethanol hydrochloride]
Offset Slope Component (0-5) min (elevated heart rate [1]; listed as 1, hydrochloride): -0.40 beats per minute per minute | Offset Slope Component (0-5) min (elevated heart rate [1]; listed as 2, hydrochloride): -3.70 beats per minute per minute | Offset Slope Component (5-10) min (elevated heart rate [1]; listed as 1, hydrochloride): -0.80 beats per minute per minute | Offset Slope Component (5-10) min (elevated heart rate [1]; listed as 2, hydrochloride): 1.70 beats per minute per minute | Offset Slope Component (10-30) min (elevated heart rate [1]; listed as 1, hydrochloride): -0.02 beats per minute per minute | Offset Slope Component (10-30) min (elevated heart rate [1]; listed as 2, hydrochloride): -0.50 beats per minute per minute | Change in Heart Rate (peak minus baseline) (elevated heart rate [1]; listed as 1, hydrochloride): 56 bpm | Peak Heart Rate (elevated heart rate [1]; listed as 1, hydrochloride): 123 bpm | Change in Heart Rate (peak minus baseline) (elevated heart rate [1]; listed as 2, hydrochloride): 87 bpm | Peak Heart Rate (elevated heart rate [1]; listed as 2, hydrochloride): 160 bpm | Total time (startup) thru offset plateau: in words (elevated heart rate [1]; listed as 1, hydrochloride): Never reached to w/in 20 bpm of baseline | Total time (startup) thru offset plateau: in words (elevated heart rate [1]; listed as 2, hydrochloride): Never reached to w/in 20 bpm pf baseline | Onset Slope (elevated heart rate [1]; listed as 1, hydrochloride): 6.80 beats per minute per minute | Onset Slope (elevated heart rate [1]; listed as 2, hydrochloride): 17.60 beats per minute per minute | Decline in heart rate after ESA drug without pretreatment (elevated heart rate [1]): essentially no reduction in heart rate | Decline in heart rate after ESA drug without pretreatment (elevated heart rate [1]; listed as ESA™ drug): no decline in heart rate during the first hour | Offset time (elevated heart rate [1]; listed as 1, hydrochloride): 29.00 min | Offset time (elevated heart rate [1]; listed as 2, hydrochloride): 39.00 min | Offset Slope (elevated heart rate [1]; listed as 1, hydrochloride): -0.30 beats per minute per minute | Offset Slope (elevated heart rate [1]; listed as 2, hydrochloride): -0.25 beats per minute per minute | Delay (elevated heart rate [1]; listed as 1, hydrochloride): 1.50 min | Delay (elevated heart rate [1]; listed as 2, hydrochloride): 7.00 min | Onset time (elevated heart rate [1]; listed as 1, hydrochloride): 9.00 min | Onset time (elevated heart rate [1]; listed as 2, hydrochloride): 5.00 min | Time Start Decline (elevated heart rate [1]; listed as 1, hydrochloride): 14.00 min | Time Start Decline (elevated heart rate [1]; listed as 2, hydrochloride): 12.50 min | experimental half-life (elevated heart rate [2]): 31 min | heart rate following TDI arbutamine without pretreatment (elevated heart rate [2]; FIGS. 3 and 4): prolonged elevation of heart rate | CHANGE IN HEART RATE, Mean (elevated heart rate [2]; Table VII, mean of runs): 74.68 BPM | DELAY TIME, Mean (elevated heart rate [2]; Table VII, mean of runs): 7.10 min | HALF-LIFE, Mean (elevated heart rate [2]; Table VII, mean of runs): 30.91 min | TIME TO REACH 10% DECLINE IN HEART RATE, Mean (elevated heart rate [2]; Table VII, mean of runs): 10.19 min | TIME TO REACH 20% DECLINE IN HEART RATE, Mean (elevated heart rate [2]; Table VII, mean of runs): 15.98 min | TIME TO REACH 30% DECLINE IN HEART RATE, Mean (elevated heart rate [2]; Table VII, mean of runs): 21.96 min | TIME TO REACH 40% DECLINE IN HEART RATE, Mean (elevated heart rate [2]; Table VII, mean of runs): 27.72 min | TIME TO REACH 50% DECLINE IN HEART RATE, Mean (elevated heart rate [2]; Table VII, mean of runs): 31.37 min | CHANGE IN HEART RATE (elevated heart rate [2]; Table VII, listed as Control): 52.17 BPM and 123.25 BPM and 60.00 BPM and 88.00 BPM and 87.00 BPM and 63.00 BPM and 78.80 BPM and 54.05 BPM and 88.07 BPM and 94.17 BPM and 54.44 BPM and 58.44 BPM and 77.47 BPM and 82.88 BPM and 77.08 BPM | DELAY TIME (elevated heart rate [2]; Table VII, listed as Control): 1.57 min and 1.00 min and 60.00 min and 5.50 min and 7.00 min and 5.10 min and 3.66 min and 2.28 min and 0.00 min and 1.67 min and 3.10 min and 9.20 min and 8.54 min and 1.99 min and 1.44 min | TIME TO REACH 10% DECLINE IN HEART RATE (elevated heart rate [2]; Table VII, listed as Control): 3.20 min and 6.24 min and 60.00 min and 7.07 min and 9.35 min and 8.80 min and 5.53 min and 4.53 min and 2.28 min and 9.66 min and 7.04 min and 10.79 min and 9.50 min and 4.00 min and 4.04 min | TIME TO REACH 20% DECLINE IN HEART RATE (elevated heart rate [2]; Table VII, listed as Control): 4.83 min and 9.16 min and 60.00 min and 98.65 min and 11.70 min and 7.41 min and 6.79 min and 4.55 min and 19.65 min and 16.54 min and 23.38 min and 10.47 min and 5.04 min and 6.82 min | TIME TO REACH 30% DECLINE IN HEART RATE (elevated heart rate [2]; Table VII, listed as Control): 6.46 min and 12.67 min and 60.00 min and 10.21 min and 14.16 min and 9.91 min and 9.23 min and 10.58 min and 29.56 min and 23.02 min and 13.98 min and 11.43 min and 8.54 min and 11.63 min | TIME TO REACH 40% DECLINE IN HEART RATE (elevated heart rate [2]; Table VII, listed as Control): 19.07 min and 17.19 min and 60.00 min and 16.92 min and 18.71 min and 13.84 min and 11.73 min and 22.82 min and 29.50 min and 16.23 min and 12.39 min and 11.49 min and 13.58 min | TIME TO REACH 50% DECLINE IN HEART RATE (elevated heart rate [2]; Table VII, listed as Control): 22.93 min and 21.70 min and 60.00 min and 24.25 min and 24.54 min and 25.97 min and 16.68 min and 30.00 min and 33.10 min and 18.58 min and 113.35 min and 15.32 min and 15.52 min | CHANGE IN HEART RATE (elevated heart rate [2]; Table VII, listed as control): 56.00 BPM | DELAY TIME (elevated heart rate [2]; Table VII, listed as control): 1.50 min | TIME TO REACH 10% DECLINE IN HEART RATE (elevated heart rate [2]; Table VII, listed as control): 11.00 min | TIME TO REACH 20% DECLINE IN HEART RATE (elevated heart rate [2]; Table VII, listed as control): 60.00 min | TIME TO REACH 30% DECLINE IN HEART RATE (elevated heart rate [2]; Table VII, listed as control): 60.00 min | TIME TO REACH 40% DECLINE IN HEART RATE (elevated heart rate [2]; Table VII, listed as control): 60.00 min | TIME TO REACH 50% DECLINE IN HEART RATE (elevated heart rate [2]; Table VII, listed as control): 60.00 min | HALF-LIFE (elevated heart rate [2]; Table VII, listed as Control): 12.53 min and 60.00 min and 20.60 min and 13.72 min and 25.09 min and 52.48 min and 2.42 min and 12.81 min and 9.60 min | HALF-LIFE (elevated heart rate [2]; Table VII, listed as control): 60.00 min | HALF-LIFE [3]: ~7 min | fraction unbound [4]: 0.36
